Like-named read-outs stand apart in the source and are kept apart here.
Legend:
Type in all cases: in vivo
[1] = tested on: eastern black (E.B.) nightshade (Solanum ptycanthum); test: Test B pre-/postemergence plant response; conditions: Preemergence
Description: (§1) Seeds of plant species selected from blackgrass (Alopecurus myosuroides), downy bromegrass (Bromus tectorum), green foxtail (Setaria viridis), Italian ryegrass (Lolium multiflorum), wheat (Triticum aestivum), wild oat (Avena fatua), catchweed bedstraw (Galium aparine), bermudagrass (Cynodon dactylon), surinam grass (Brachiaria decumbens), cocklebur (Xanthium strumarium), corn (Zea mays), large crabgrass (Digitaria sanguinalis), woolly cupgrass (Eriochloa villosa), giant foxtail (Setaria faberii), goosegrass (Eleusine indica), johnsongrass (Sorghum halepense), kochia (Kochia scoparia), lambsquarters (Chenopodium album), morningglory (Ipomoea coccinea), eastern black (E.B.) nightshade (Solanum ptycanthum), yellow nutsedge (Cyperus esculentus), pigweed (Amaranthus retroflexus), common ragweed (Ambrosia elation), Russian thistle (Salsola iberica), soybean (Glycine max), common (oilseed) sunflower (Helianthus annuus), and velvetleaf (Abutilon theophrasti) were planted and treated preemergence with test chemicals formulated in a non-phytotoxic solvent mixture which included a surfactant.
(§2) At the same time, plants selected from these crop and weed species and also winter barley (Hordeum vulgare), canarygrass (Phalaris minor), chickweed (Stellaria media) and windgrass (Apera spica-venti) were treated with postemergence applications of some of the test chemicals formulated in the same manner. Plants ranged in height from 2 to 18 cm (1- to 4-leaf stage) for postemergence treatments.
(§3) Plant species in the flooded paddy test consisted of rice (Oryza sativa), umbrella sedge (Cyperus difformis), ducksalad (Heteranthera limosa) and barnyardgrass (Echinochloa crus-galli) grown to the 2-leaf stage for testing. At time of treatment, test pots were flooded to 3 cm above the soil surface, treated by application of test compounds directly to the paddy water, and then maintained at that water depth for the duration of the test. Treated plants and controls were maintained in a greenhouse for 13 to 15 days, after which time all species were compared to controls and visually evaluated. Plant response ratings, summarized in Table B, are based on a scale of 0 to 100 where 0 is no effect and 100 is complete control. A dash (-) response means no test result.

[2] = tested on: common ragweed (Ambrosia elation); test: Test B pre-/postemergence plant response; conditions: for pest or weed control at 31 g/ha / pest or weed control at 62 g/ha: Ambrosia, read-out: Plant response rating, Ragweed; for pest or weed control at 31 g/ha: 31 g ai/ha; for pest or weed control at 62 g/ha: 62 g ai/ha, 100 complete control
Description: as §1, §2, §3

[3] = tested on: woolly cupgrass (Eriochloa villosa); test: Test B pre-/postemergence plant response; conditions: for pest or weed control at 31 g/ha: 31 g ai/ha; for pest or weed control at 62 g/ha: 62 g ai/ha, 100 complete control
Description: as §1, §2, §3

[4] = tested on: Italian ryegrass (Lolium multiflorum); test: Test B pre-/postemergence plant response; conditions: for pest or weed control at 31 g/ha / pest or weed control at 62 g/ha: Lolium multiflorum, read-out: Plant response rating, Ryegrass, Italian; for pest or weed control at 31 g/ha: 31 g ai/ha; for pest or weed control at 62 g/ha: 62 g ai/ha, 100 complete control
Description: as §1, §2, §3

[5] = tested on: yellow nutsedge (Cyperus esculentus); test: Test B pre-/postemergence plant response; conditions: for pest or weed control at 31 g/ha / pest or weed control at 62 g/ha: Cyperus, read-out: Plant response rating, Nutsedge, Yellow; for pest or weed control at 31 g/ha: 31 g ai/ha; for pest or weed control at 62 g/ha: 62 g ai/ha, 100 complete control
Description: as §1, §2, §3

[6] = tested on: Russian thistle (Salsola iberica); test: Test B pre-/postemergence plant response; conditions: Preemergence
Description: as §1, §2, §3

[7] = tested on: goosegrass (Eleusine indica); test: Test B pre-/postemergence plant response; conditions: for pest or weed control at 31 g/ha / pest or weed control at 62 g/ha: Eleusine indica, read-out: Plant response rating, Goosegrass; for pest or weed control at 31 g/ha: 31 g ai/ha; for pest or weed control at 62 g/ha: 62 g ai/ha, 100 complete control
Description: as §1, §2, §3

soybean (Glycine max) = test: Test B pre-/postemergence plant response; conditions: for plant injury at 31 g/ha / plant injury at 62 g/ha: Glycine max, read-out: Plant response rating, Soybean; for plant injury at 31 g/ha: 31 g ai/ha; for plant injury at 62 g/ha: 62 g ai/ha, 100 complete control
Description: as §1, §2, §3

[8] = tested on: pigweed (Amaranthus retroflexus); test: Test B pre-/postemergence plant response; conditions: for pest or weed control at 31 g/ha / pest or weed control at 62 g/ha: Amaranthus retroflexus, read-out: Plant response rating, Pigweed; for pest or weed control at 31 g/ha: 31 g ai/ha; for pest or weed control at 62 g/ha: 62 g ai/ha, 100 complete control
Description: as §1, §2, §3

[9] = tested on: cocklebur (Xanthium strumarium); test: Test B pre-/postemergence plant response; conditions: for pest or weed control at 31 g/ha: 31 g ai/ha; for pest or weed control at 62 g/ha: 62 g ai/ha, 100 complete control
Description: as §1, §2, §3

[10] = tested on: wheat (Triticum aestivum); test: Test A pre-/postemergence plant response; conditions: Triticum aestivum, 240 h, read-out: Plant response rating, Wheat; for plant injury at 31 g/ha: 31 g ai/ha; for plant injury at 125 g/ha: 125 g ai/ha
Outline: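 Ratings run 0–100 (100 = complete control), assigned visually against untreated controls roughly 10 days after treatment in a greenhouse. Compounds, formulated in non-phytotoxic solvent containing surfactant, were applied as a soil-directed preemergence spray and concurrently postemergence to one- to two-leaf plants 2–10 cm tall.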

[11] = 8 g ai/ha, scale 0 to 100 (0 no effect, 100 complete control)
[12] = 8 g ai/ha, postemergence, 0-100 scale
[13] = 16 g ai/ha, postemergence, 0-100 scale
[14] = post-emergence, Postemergence, scale 0 to 100
[15] = post-emergence, Postemergence, scale 0 to 100, 0 no effect
[16] = pre-emergence, Preemergence, scale 0 to 100 (0 no effect, 100 complete control)
[17] = pre-emergence, Preemergence, 0 to 100 scale, 0 no effect
[18] = Preemergence, 8 g ai/ha, scale 0 to 100 (0 no effect, 100 complete control)
[19] = Preemergence, 16 g ai/ha, scale 0 to 100

## Cc1cc(-c2ccc(Br)cc2)nn1-c1c(OC(=O)C2CC2)cnn(C(=O)C2CC2)c1=O [Compound 80, 5-[3-(4-bromophenyl)-5-methyl-1H-pyrazol-1-yl]-1-(cyclopropylcarbonyl)-1,6-dihydro-6-oxo-4-pyridazinyl cyclopropanecarboxylate]
[1]; [11]
  Nightshade, E. B. plant response rating: 0
[1]; Solanum, pre-emergence, 31 g ai/ha, scale 0 to 100 (0 no effect, 100 complete control), read-out: Plant response rating, Nightshade, E. B.
  pest or weed control at 31 g/ha: 0%
[1]; Solanum, pre-emergence, 62 g ai/ha, 0 to 100 scale, 0 no effect, 100 complete control, read-out: Plant response rating, Nightshade, E. B.
  pest or weed control at 62 g/ha: 0%
[2]; [12]
  Ragweed plant response rating: 0
[2]; [13]
  Ragweed plant response rating: 0
[2]; [14]
  pest or weed control at 31 g/ha: 0%
[2]; [15]
  pest or weed control at 62 g/ha: 0%
[2]; [16]
  pest or weed control at 31 g/ha: 0%
[2]; [17]
  pest or weed control at 62 g/ha: 0%
[2]; [18]
  Ragweed plant response rating: 0
[2]; [19]
  Ragweed plant response rating: 0
[3]; [12]
  Cupgrass, Woolly plant response rating: 80
[3]; Eriochloa villosa, post-emergence, Postemergence, 16 g ai/ha, scale 0 to 100, read-out: Plant response rating, Cupgrass, Woolly
  pest or weed control at 16 g/ha: 95%
[3]; Eriochloa villosa, post-emergence, Postemergence, scale 0 to 100, read-out: Plant response rating, Cupgrass, Woolly
  pest or weed control at 31 g/ha: 100%
[3]; Eriochloa villosa, post-emergence, Postemergence, scale 0 to 100, 0 no effect, read-out: Plant response rating, Cupgrass, Woolly
  pest or weed control at 62 g/ha: 100%
[3]; Eriochloa villosa, pre-emergence, Preemergence, scale 0 to 100 (0 no effect, 100 complete control), read-out: Plant response rating, Cupgrass, Woolly
  pest or weed control at 31 g/ha: 98%
[3]; Eriochloa villosa, pre-emergence, Preemergence, 0 to 100 scale, 0 no effect, read-out: Plant response rating, Cupgrass, Woolly
  pest or weed control at 62 g/ha: 100%
[3]; [18]
  Cupgrass, Woolly plant response rating: 0
[3]; [19]
  Cupgrass, Woolly plant response rating: 65
[4]; [12]
  Ryegrass, Italian plant response rating: 80
[4]; [13]
  Ryegrass, Italian plant response rating: 98
[4]; [14]
  pest or weed control at 31 g/ha: 100%
[4]; [15]
  pest or weed control at 62 g/ha: 100%
[4]; [16]
  pest or weed control at 31 g/ha: 40%
[4]; [17]
  pest or weed control at 62 g/ha: 100%
[4]; [18]
  Ryegrass, Italian plant response rating: 0
[4]; [19]
  Ryegrass, Italian plant response rating: 40
[5]; [12]
  Nutsedge, Yellow plant response rating: 0
[5]; [13]
  Nutsedge, Yellow plant response rating: 0
[5]; [14]
  pest or weed control at 31 g/ha: 0%
[5]; [15]
  pest or weed control at 62 g/ha: 0%
[5]; [16]
  pest or weed control at 31 g/ha: 0%
[5]; [17]
  pest or weed control at 62 g/ha: 100%
[5]; [18]
  Nutsedge, Yellow plant response rating: 0
[5]; [19]
  Nutsedge, Yellow plant response rating: 0
[6]; [11]
  Russian Thistle plant response rating: 0
[6]; 31 g ai/ha, scale 0 to 100 (0 no effect, 100 complete control)
  Plant response rating, Russian Thistle: 0
[6]; 62 g ai/ha, 0 to 100 scale, 0 no effect, 100 complete control
  Plant response rating, Russian Thistle: 0
[6]; 16 g ai/ha, scale 0 to 100
  Russian Thistle plant response rating: 0
[7]; [12]
  Goosegrass plant response rating: 20
[7]; [13]
  Goosegrass plant response rating: 75
[7]; [14]
  pest or weed control at 31 g/ha: 85%
[7]; [15]
  pest or weed control at 62 g/ha: 98%
[7]; [16]
  pest or weed control at 31 g/ha: 100%
[7]; [17]
  pest or weed control at 62 g/ha: 100%
[7]; [18]
  Goosegrass plant response rating: 0
[7]; [19]
  Goosegrass plant response rating: 20
Soybean (Glycine max); [12]
  Soybean plant response rating: 0
Soybean (Glycine max); [13]
  Soybean plant response rating: 0
Soybean (Glycine max); [14]
  plant injury at 31 g/ha: 15%
Soybean (Glycine max); [15]
  plant injury at 62 g/ha: 20%
Soybean (Glycine max); [16]
  plant injury at 31 g/ha: 0%
Soybean (Glycine max); [17]
  plant injury at 62 g/ha: 0%
Soybean (Glycine max); [18]
  Soybean plant response rating: 0
Soybean (Glycine max); [19]
  Soybean plant response rating: 0
[8]; [12]
  Pigweed plant response rating: 0
[8]; [13]
  Pigweed plant response rating: 0
[8]; [14]
  pest or weed control at 31 g/ha: 0%
[8]; [15]
  pest or weed control at 62 g/ha: 0%
[8]; [16]
  pest or weed control at 31 g/ha: 0%
[8]; [17]
  pest or weed control at 62 g/ha: 55%
[8]; [18]
  Pigweed plant response rating: 0
[8]; [19]
  Pigweed plant response rating: 0
[9]; [12]
  Cocklebur plant response rating: 0
[9]; [18]
  Cocklebur plant response rating: 0
[9]; [19]
  Cocklebur plant response rating: 0
[9]; Xanthium strumarium, post-emergence, Postemergence, 16 g ai/ha, scale 0 to 100, read-out: Plant response rating, Cocklebur
  pest or weed control at 16 g/ha: 0%
[9]; Xanthium strumarium, post-emergence, Postemergence, scale 0 to 100, read-out: Plant response rating, Cocklebur
  pest or weed control at 31 g/ha: 0%
[9]; Xanthium strumarium, post-emergence, Postemergence, scale 0 to 100, 0 no effect, read-out: Plant response rating, Cocklebur
  pest or weed control at 62 g/ha: 0%
[9]; Xanthium strumarium, pre-emergence, Preemergence, scale 0 to 100 (0 no effect, 100 complete control), read-out: Plant response rating, Cocklebur
  pest or weed control at 31 g/ha: 0%
[9]; Xanthium strumarium, pre-emergence, Preemergence, 0 to 100 scale, 0 no effect, read-out: Plant response rating, Cocklebur
  pest or weed control at 62 g/ha: 0%
[10]; post-emergence, Postemergence, 0 to 100 scale (0 no effect, 100 complete control)
  plant injury at 31 g/ha: 30%
[10]; post-emergence, Postemergence, 0 to 100 scale, 0 no effect, 100 complete control
  plant injury at 125 g/ha: 70%
[10]; pre-emergence, Preemergence, 0 to 100 scale, 0 is no effect, 100 is complete control
  plant injury at 31 g/ha: 20%
[10]; pre-emergence, Preemergence, 0 to 100 scale (0 no effect, 100 complete control)
  plant injury at 125 g/ha: 80%
